Here are results for 46 compounds from PMC3116189, “Novel Natural Inhibitors of CYP1A2 Identified by in Silico and in Vitro Screening” (International Journal of Molecular Sciences, 2011).
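Further: recombinant CYP1A2 incubated for 1 h at 37 °C, with the reaction started by an NADPH-generating system.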

For one data set, the target named is T1, CYP1A2 (Homo sapiens, UniProt P05177).
T1 sequence (P05177 1-516): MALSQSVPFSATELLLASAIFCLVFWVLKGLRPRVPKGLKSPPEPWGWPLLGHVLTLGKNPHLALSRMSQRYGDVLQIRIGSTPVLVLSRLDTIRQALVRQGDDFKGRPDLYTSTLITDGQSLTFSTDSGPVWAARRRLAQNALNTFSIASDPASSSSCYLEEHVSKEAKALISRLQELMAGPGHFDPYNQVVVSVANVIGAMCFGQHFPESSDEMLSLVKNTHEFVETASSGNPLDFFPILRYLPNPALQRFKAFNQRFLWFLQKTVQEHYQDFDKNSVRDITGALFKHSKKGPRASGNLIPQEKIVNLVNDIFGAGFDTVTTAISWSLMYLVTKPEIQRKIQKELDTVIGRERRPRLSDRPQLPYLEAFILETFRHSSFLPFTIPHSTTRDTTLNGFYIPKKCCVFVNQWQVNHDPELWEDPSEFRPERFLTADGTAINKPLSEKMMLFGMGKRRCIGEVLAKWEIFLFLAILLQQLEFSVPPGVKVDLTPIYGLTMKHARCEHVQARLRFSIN
As to the kind of experiment: in vitro. Particulars: 1 μM active ingredient, Rh CYP1A2-mediated phenacetin O-deethylation, test dataset of 202 herb ingredients. Type of data set: biochemical.
As for `COc1ccc(-c2oc3c(CC=C(C)C)c(O[C@@H]4O[C@H](CO)[C@@H](O)[C@H](O)[C@H]4O)cc(O)c3c(=O)c2O)cc1` [Icariside I], the “% of Control Indication Activity (Mean)” value is reported as greater than 90%.
As for `COc1cc2c(cc1O)CC[n+]1cc3c(OC)c(OC)ccc3cc1-2.[Cl-]` [Jatrorrhizine Hydrochloride], the “% of Control Indication Activity (Mean)” value is greater than 90%.
For the compound `COc1cc2c(cc1OC)[C@@H](Cc1ccc(O)c(Oc3cc4c(cc3OC)CCN(C)[C@@H]4Cc3ccc(O)cc3)c1)N(C)CC2` [Liensinine], the “% of Control Indication Activity (Mean)” value is greater than 90%.
With `COc1ccc(-c2cc(=O)c3c(O)cc(O[C@@H]4O[C@H](CO[C@@H]5O[C@@H](C)[C@H](O)[C@@H](O)[C@H]5O)[C@@H](O)[C@H](O)[C@H]4O)cc3o2)cc1` [Linarin], the “% of Control Indication Activity (Mean)” value is given as greater than 90%.
For the compound `COC[C@]12CN(C)[C@@H]3[C@@H]4[C@H](OC)[C@H]1[C@@]3([C@@H](OC)C[C@H]2O)[C@@H]1C[C@@]2(O)[C@H](OC(=O)c3ccccc3)[C@@H]1[C@]4(OC(C)=O)[C@@H](O)[C@@H]2OC` [Mesaconitine], the “% of Control Indication Activity (Mean)” value is greater than 90%.
On to `C[C@@H]1CCCCCCCCCCCCC(=O)C1` [Muscone], for which the “% of Control Indication Activity (Mean)” value is greater than 90%.
`CC(C)=CCC[C@](C)(O[C@@H]1O[C@H](CO)[C@@H](O)[C@H](O)[C@H]1O)[C@H]1CC[C@]2(C)[C@@H]1[C@H](O)C[C@@H]1[C@@]3(C)CC[C@H](O)C(C)(C)[C@@H]3[C@@H](O[C@@H]3O[C@H](CO)[C@@H](O)[C@H](O)[C@H]3O[C@@H]3OC[C@@H](O)[C@H](O)[C@H]3O)C[C@]12C` [Notoginsenoside R1]: the “% of Control Indication Activity (Mean)” value was greater than 90%.

Staying with this data set, now noted: human, recombinant enzyme, pH 7.4.
Turning to `C=CCc1ccc(O)c(-c2ccc(O)c(CC=C)c2)c1` [Honokiol], the activity at 1 h, 1 μM came out at 33.6%.
Take `O=c1c(O[C@@H]2O[C@H](CO)[C@H](O)[C@H](O)[C@H]2O)c(-c2ccc(O)c(O)c2)oc2cc(O)cc(O)c12` [Hyperoside]: the activity at 1 h, 1 μM was greater than 90%.
Turning to `COc1ccc(-c2oc3c(CC=C(C)C)c(O)cc(O)c3c(=O)c2O)cc1` [Icaritin], the activity at 1 h, 1 μM is greater than 90%.
As to `O=C1C[C@@H](c2ccc(O[C@@H]3O[C@H](CO)[C@@H](O)[C@H](O)[C@H]3O)cc2)Oc2cc(O)ccc21` [Liquiritin], the activity at 1 h, 1 μM was greater than 90%.
With `COC(=O)c1c2c(c3ccccc3c1O)OC(C)(C)C=C2` [Mollugin], the activity at 1 h, 1 μM is greater than 90%.
Still for that read-out and setting: for `C[C@@H]1O[C@@H](O[C@H]2[C@H](Oc3cc(O)c4c(c3)O[C@H](c3ccc(O)cc3)CC4=O)O[C@H](CO)[C@@H](O)[C@@H]2O)[C@H](O)[C@H](O)[C@H]1O` [Naringin] the value was greater than 90%.
For `COc1ccc2ccc(=O)oc2c1CC=C(C)C` [Osthole], the activity at 1 h, 1 μM turned out to be 86.8%.

The same data set, now with this note: human, recombinant enzyme, pH 7.4; 1 μM active ingredient, Rh CYP1A2-mediated phenacetin O-deethylation, test dataset of 202 herb ingredients; read-out: % of Control Indication Activity (Mean).
Take `COc1cc2c[n+](C)c3c4cc5c(cc4ccc3c2cc1OC)OCO5` [Nitidine]: the activity at 1 h, 1 μM was greater than 90%.

Still in this data set, the particulars now being: human, recombinant human CYP1A2, pH 7.4, probe phenacetin (25 μM), O-deethylation to acetaminophen; 1 μM active ingredient, Rh CYP1A2-mediated phenacetin O-deethylation, test dataset of 202 herb ingredients; read-out: % of Control Indication Activity (Mean).
Consider `CC(C)=CCC[C@](C)(O[C@@H]1O[C@H](CO)[C@@H](O)[C@H](O)[C@H]1O)[C@H]1CC[C@]2(C)[C@@H]1[C@H](O)C[C@@H]1[C@@]3(C)CC[C@H](O)C(C)(C)[C@@H]3[C@@H](O)C[C@]12C` [Ginsenoside F1], for which the activity at 1 h, 1 μM is greater than 90%.
Regarding `CC(C)=CCC[C@](C)(O[C@@H]1O[C@H](CO[C@@H]2O[C@H](CO)[C@@H](O)[C@H](O)[C@H]2O)[C@@H](O)[C@H](O)[C@H]1O)[C@H]1CC[C@]2(C)[C@@H]1[C@H](O)C[C@@H]1[C@@]3(C)CC[C@H](O[C@@H]4O[C@H](CO)[C@@H](O)[C@H](O)[C@H]4O[C@@H]4O[C@H](CO)[C@@H](O)[C@H](O)[C@H]4O)C(C)(C)[C@@H]3CC[C@]12C` [Ginsenoside Rb1], the activity at 1 h, 1 μM is greater than 90%.
As for `CC(C)=CCC[C@](C)(O[C@@H]1O[C@H](CO)[C@@H](O)[C@H](O)[C@H]1O)[C@H]1CC[C@]2(C)[C@@H]1[C@H](O)C[C@@H]1[C@@]3(C)CC[C@H](O)C(C)(C)[C@@H]3[C@@H](O[C@@H]3O[C@H](CO)[C@@H](O)[C@H](O)[C@H]3O[C@@H]3O[C@@H](C)[C@H](O)[C@@H](O)[C@H]3O)C[C@]12C` [Ginsenoside Re], the activity at 1 h, 1 μM is greater than 90%.
In the case of `CC(C)=CCC[C@](C)(O[C@@H]1O[C@H](CO)[C@@H](O)[C@H](O)[C@H]1O)[C@H]1CC[C@]2(C)[C@@H]1[C@H](O)C[C@@H]1[C@@]3(C)CC[C@H](O)C(C)(C)[C@@H]3[C@@H](O[C@@H]3O[C@H](CO)[C@@H](O)[C@H](O)[C@H]3O)C[C@]12C` [Ginsenoside Rg1], the activity at 1 h, 1 μM was greater than 90%.
On the same count and under the same terms, the value for `CC1(C)[C@@H](O)CC[C@]2(C)[C@H]3C(=O)C=C4[C@@H]5C[C@@](C)(C(=O)O)CC[C@]5(C)CC[C@@]4(C)[C@]3(C)CC[C@@H]12` [Glycyrrhetinic acid] was greater than 90%.
As for `C[C@]1(OC(=O)/C=C/c2ccccc2)C[C@@H](O)[C@]2(O)C=CO[C@@H](O[C@@H]3O[C@H](CO)[C@@H](O)[C@H](O)[C@H]3O)[C@@H]21` [Harpagoside], the activity at 1 h, 1 μM was greater than 90%.
Take `CC1(C)CC[C@]2(C(=O)O)CC[C@]3(C)C(=CC[C@@H]4[C@@]5(C)CC[C@H](O)[C@@](C)(CO)[C@@H]5CC[C@]43C)[C@@H]2C1` [Hederagenin]: the activity at 1 h, 1 μM was greater than 90%.
For the compound `O=C1/C(=C2\Nc3ccccc3C2=O)Nc2ccccc21` [Indigo], the activity at 1 h, 1 μM was greater than 90%.
On the same count and under the same terms, the value for `O=C1Nc2ccccc2/C1=C1/Nc2ccccc2C1=O` [Indirubin] was greater than 90%; that for `COc1cc(-c2coc3cc4c(c(OC)c3c2=O)OCO4)cc(OC)c1OC` [Irisflorentin] was greater than 90%; that for `COc1ccc(/C=C/C(=O)O)cc1O` [Isoferulic acid] was greater than 90%.
Consider `C[C@@]1(CO)C[C@@H](O)C[C@@]2(C)[C@@H]3CC[C@](C)([C@@H](O)CO)C=C3CC[C@H]12` [Kirenol], for which the activity at 1 h, 1 μM was greater than 90%.
As to `C/C1=C\CC[C@]23O[C@H]2[C@@H](OC3=O)c2c(C)coc2C1` [Linderane], the activity at 1 h, 1 μM was greater than 90%.
Still for that read-out and setting: the value for `COC(=O)C1=CO[C@@H](O[C@@H]2O[C@H](CO)[C@@H](O)[C@H](O)[C@H]2O)[C@@H]2[C@@H](C)[C@@H](O)C[C@H]12` [Loganin] was greater than 90%.
On the same count and under the same terms, the value for `O=c1cc(-c2ccc(O)c(O)c2)oc2cc(O)cc(O)c12` [Luteolin] was 87.4%; that for `CC1CCC(C(C)C)C(O)C1` (stereo not shown) [Menthol] was greater than 90%; that for `C=C1C(=O)[C@]23[C@H](O)[C@H]1CC[C@H]2[C@@]12CO[C@]3(O)[C@@H](O)[C@@H]1C(C)(C)CC[C@@H]2O` [Oridonin] was greater than 90%.

Still in this data set, the particulars now being: recombinant enzyme.
As for `COc1ccc([C@@H]2CC(=O)c3c(O)cc(O[C@@H]4O[C@H](CO[C@@H]5O[C@@H](C)[C@H](O)[C@@H](O)[C@H]5O)[C@@H](O)[C@H](O)[C@H]4O)cc3O2)cc1O` [Hesperidin], the “% of Control Indication Activity (Mean)” value was greater than 90.
On to `COc1cc2ccc(=O)oc2c(OC)c1O` [Isofraxidin], for which the “% of Control Indication Activity (Mean)” value is listed as greater than 90.
Consider `CC1(C)CC[C@]2(C(=O)O)CC[C@]3(C)C(=CC[C@@H]4[C@@]5(C)CC[C@H](O[C@@H]6O[C@H](C(=O)O)[C@@H](O)[C@H](O[C@@H]7OC[C@@H](O)[C@H](O)[C@H]7O)[C@H]6O)C(C)(C)[C@@H]5CC[C@]43C)[C@@H]2C1` [Momordin Ic], for which the “% of Control Indication Activity (Mean)” value is given as greater than 90.

Still in this data set, the particulars now being: recombinant enzyme, pH 7.4; 1 μM active ingredient, Rh CYP1A2-mediated phenacetin O-deethylation, test dataset of 202 herb ingredients; read-out: % of Control Indication Activity (Mean).
Turning to `C[C@@H]1C(=O)O[C@H]2C[C@@]34[C@H]5C[C@@H](C(C)(C)C)[C@]36[C@@H](OC(=O)[C@@H]6O)O[C@@]4(C(=O)O5)[C@]21O` [Ginkgolide A], the activity is greater than 90%.
On the same count and under the same terms, the value for `COC[C@@]12CC[C@H](OC)[C@]34C(C([C@H](OC)[C@H]13)[C@]1(OC(C)=O)[C@H]3[C@@H](OC(=O)c5ccccc5)[C@](O)(C[C@H]34)[C@@H](OC)[C@@H]1O)N(C)C2` [Hypaconitine] was greater than 90%.
In the case of `CC(C)=CCOc1c2occc2cc2ccc(=O)oc12` [Imperatorin], the activity was greater than 90%.
For the compound `O=c1ccc2ccc3occc3c2o1` [Isopsoralen], the activity at 1 h, 1 μM was greater than 90%.
With `COc1cc(-c2oc3cc(O)cc(O)c3c(=O)c2O)ccc1O` [Isorhamnetin], the activity is greater than 90%.
As to `CC1=C2C(=O)[C@H]3[C@@H](CC=C4C[C@@H](O)CC[C@@]43C)[C@@H]2CC[C@]12O[C@@H]1C[C@H](C)CN[C@H]1[C@H]2C` [Jervine], the activity at 1 h, 1 μM was greater than 90%.
On to `C=CCc1ccc(O)c(-c2cc(CC=C)ccc2O)c1` [Magnolol], for which the activity is greater than 90%.
On to `O=C1CCC[C@@H]2[C@H]3CCCN4CCC[C@@H](CN12)[C@@H]34` [Matrine], for which the activity was greater than 90%.
On the same count and under the same terms, for `CCCCCCCCCC(C)=O` [Methyl nonylketone] the value was greater than 90%; for `COc1cc2c3c(c1OC)-c1ccccc1C[C@H]3N(C)CC2` [Nuciferine], 85.5%.
Consider `CC1(C)CC[C@]2(C(=O)O)CC[C@]3(C)C(=CC[C@@H]4[C@@]5(C)CC[C@H](O)C(C)(C)[C@@H]5CC[C@]43C)[C@@H]2C1` [Oleanol ic acid], for which the activity at 1 h, 1 μM is greater than 90%.
